According to the NIST ThermoML archive (doi:10.1021/acs.jced.7b00181):
± gives the expanded uncertainty stated by the source.

Conditions: Liquid, Concentric cylinders viscometry

Row | Structure (SMILES) | viscosity (298.15 K, 10000 kPa) | viscosity (298.15 K, 50000 kPa) | viscosity (298.15 K, 75000 kPa) | viscosity (313.15 K, 10000 kPa) | viscosity (313.15 K, 50000 kPa) | viscosity (313.15 K, 75000 kPa) | viscosity (323.15 K, 10000 kPa) | viscosity (323.15 K, 50000 kPa) | viscosity (323.15 K, 75000 kPa) | viscosity (333.15 K, 10000 kPa) | viscosity (333.15 K, 50000 kPa) | viscosity (333.15 K, 75000 kPa) | viscosity (343.15 K, 10000 kPa) | viscosity (343.15 K, 50000 kPa) | viscosity (343.15 K, 75000 kPa) | viscosity (353.15 K, 10000 kPa) | viscosity (353.15 K, 50000 kPa) | viscosity (353.15 K, 75000 kPa)
1 | CCCCCCOS(=O)(=O)[O-].CC[n+]1ccn(C)c1 [3-ethyl-1-methyl-1H-imidazolium hexyl sulfate] | 354 ± 27 mPa·s | 571 ± 45 mPa·s | 737 ± 59 mPa·s | 154 ± 12 mPa·s | 238 ± 19 mPa·s | 304 ± 25 mPa·s | 94 ± 7 mPa·s | 142 ± 11 mPa·s | 186 ± 14 mPa·s | 63.8 ± 4.6 mPa·s | 94.8 ± 6.9 mPa·s | 120 ± 9 mPa·s | 44.5 ± 3.2 mPa·s | 65.9 ± 4.8 mPa·s | 82.1 ± 6 mPa·s | 31.4 ± 2.3 mPa·s | 46 ± 3.4 mPa·s | 56.9 ± 4.2 mPa·s
2 | CCCCCCCCCCCCCC[P+](CCCCCC)(CCCCCC)CCCCCC.FC(F)(F)C(F)(F)[P-](F)(F)(F)(C(F)(F)C(F)(F)F)C(F)(F)C(F)(F)F | 413 ± 32 mPa·s | 913 ± 75 mPa·s | 1417 ± 120 mPa·s | 189 ± 15 mPa·s | 401 ± 33 mPa·s | 615 ± 52 mPa·s | 114 ± 9 mPa·s | 223 ± 17 mPa·s | 364 ± 29 mPa·s | 78.1 ± 5.7 mPa·s | 159 ± 12 mPa·s | 232 ± 18 mPa·s | 53.5 ± 3.9 mPa·s | 112 ± 8 mPa·s | 162 ± 12 mPa·s | 37.9 ± 2.8 mPa·s | 76.3 ± 5.6 mPa·s | 109 ± 8 mPa·s
